Counter-ions that a name gives are not always drawn.
Test system: spontaneously hypertensive rats
Assay: antihypertensive activity: blood pressure after oral administration to conscious spontaneously hypertensive rats
Assay type: in vivo
Conditions: male spontaneously hypertensive rats
Protocol: The animals used in this test were 15 week old male spontaneously hypertensive rats. 3-5 rats were used to test each concentration of each compound. Each animal was treated as follows. […] A polyethylene cannula was then inserted into the abdominal aorta by the method of Weeks and Jones [J. R. Weeks and J. A. Jones, Proc. Soc. […] The other end of the cannula, leading out of the body, was fixed to the neck. One week after the operation, when the animal had recovered from post-operative invasion, this end of the cannula was connected to an apparatus to measure the blood pressure and heart beat directly without the need for any further anesthesia or restraint. The haemomanometer used was an improved type of that originated by Laffan et al. [P. J. Laffan, A. Peterson, S. W. Hitch and C.
The compound under test was suspended at the desired concentration in a 0.3% w/v aqueous solution of carboxymethylcellulose and administered orally in a volume of 2 ml/kg body weight. […] After administration of the sample, the blood pressure and heart beat of each animal were measured for 24 hours at 15 minute intervals.
For purposes of comparison, the same experiment was carried out with various concentrations of the known hypotensive agent, prazosin, in the form of its hydrochloride.
Δmax =Maximum change in blood pressure (mm/Hg) after administration of the compound under test;
Tmax =Time (in hours) after administration of the compound under test required for the blood pressure to obtain a maximum change;
T0.5 max =Time (in hours) after administration of the compound under test for the blood pressure to return to one-half of its maximum value.

SMILES	T0.5 max, time after administration for the blood pressure to return to one-half of its maximum value (dose 30 mg/kg oral)	Tmax, time after administration required for the blood pressure to obtain a maximum change (dose 30 mg/kg oral)	Δmax, maximum change in blood pressure after administration (dose 30 mg/kg oral)	T0.5 max, time after administration for the blood pressure to return to one-half of its maximum value (dose 3 mg/kg oral)	Tmax, time after administration required for the blood pressure to obtain a maximum change (dose 3 mg/kg oral)	Δmax, maximum change in blood pressure after administration (dose 3 mg/kg oral)	T0.5 max, time after administration for the blood pressure to return to one-half of its maximum value (dose 10 mg/kg oral)	Tmax, time after administration required for the blood pressure to obtain a maximum change (dose 10 mg/kg oral)	Δmax, maximum change in blood pressure after administration (dose 10 mg/kg oral)
CC=C(C)C(=O)N1CCN(c2nc(N)c3cc(OC)c(OC)cc3n2)CC1 [Compound No. 3, 4-Amino-2-[4-(2,3-dimethylacryloyl)-1-piperazinyl]-6,7-dimethoxyquinazoline]	2 h	0.5 h	-30 mmHg						
COc1cc2nc(N3CCN(C(=O)CCc4ccccc4)CC3)nc(N)c2cc1OC [29 hydrochloride hydrate]	12 h	5 h	-45 mmHg	8 h	2 h	-30 mmHg			
COc1cc2nc(N3CCN(C(=O)C=C(C)C)CC3)nc(N)c2cc1OC [Compound No. 4, 4-Amino-2-[4-(3,3-dimethylacryloyl)-1-piperazinyl]-6,7-dimethoxyquinazoline]	3 h	0.5 h	-30 mmHg						
CC=CC(=O)N1CCN(c2nc(N)c3cc(OC)c(OC)cc3n2)CC1 [1 hydrochloride hydrate]	12 h	0.5 h	-40 mmHg	8 h	0.25 h	-35 mmHg			
COc1cc2nc(N3CCN(C(=O)c4ccc(OCc5ccccc5)c(Cl)c4)CC3)nc(N)c2cc1OC [98 hydrochloride hemihydrate]	8 h	4 h	-30 mmHg						
COc1cc2nc(N3CCN(C(=O)c4ccc(OCc5ccccc5)cc4)CC3)nc(N)c2cc1OC [14 hydrochloride dihydrate]	15 h	6 to 7 h	-35 mmHg	9.5 h	6 h	-18 mmHg	12 h	6 to 7 h	-29 mmHg
COc1cc2nc(N3CCN(C(=O)c4ccco4)CC3)nc(N)c2cc1OC [prazosin hydrochloride, prazosin, reference compound]		1 h	-50 mmHg		0.5 h	-35 mmHg			
C=C(C)C(=O)N1CCN(c2nc(N)c3cc(OC)c(OC)cc3n2)CC1 [Compound No. 2, 4-Amino-6,7-dimethoxy-2-[4-(2-methylacryloyl)-1-piperazinyl]quinazoline]	9 h	0.5 h	-35 mmHg	3.5 h	0.75 h	-25 mmHg			
COc1cc2nc(N3CCN(C(=O)Cc4ccccc4)CC3)nc(N)c2cc1OC [28 hydrochloride hydrate]	10 h	4 h	-50 mmHg	9 h	1 h	-30 mmHg			
